Values quoted from earlier work as cited in patent publication US7605152B2, “17-hydroxy-4-aza-androstan-3-ones as androgen receptor modulators” (priority 2002, dated 2009).

What was measured:
[1] = after 7 years of treatment
[2] = after a median of 22 months of treatment

Row | Molecule | increase in spinal BMD [1] | reduction in nonvertebral fractures [2] | reduction in spine fractures [2]
1 | NCCCC(O)(P(=O)([O-])O)P(=O)(O)O.O.O.O.[Na+] [alendronate, (4-amino-1-hydroxybutylidene)-bis-phosphonate monosodium trihydrate] | 11% |  | 
2 | hPTH(1-34): human parathyroid hormone 1-34 fragment (SVSEIQLMHNLGKHLNSMERVEWLRKKLQDVHNF; Parathyroid hormone; UniProt P01270 32-65, looked up, fragment) |  | 54% | ≥ 65%
